Reference: patent publication US8822449B2, “Substituted aminoindanes and analogs thereof, and the pharmaceutical use thereof” (Sanofi, priority 2008, dated 2014)

Target: T1, sodium-proton exchanger of subtype 3 (NHE3) (Homo sapiens, UniProt P48764)
T1 construct: expressed in transfected cells
T1 sequence (P48764 26-834): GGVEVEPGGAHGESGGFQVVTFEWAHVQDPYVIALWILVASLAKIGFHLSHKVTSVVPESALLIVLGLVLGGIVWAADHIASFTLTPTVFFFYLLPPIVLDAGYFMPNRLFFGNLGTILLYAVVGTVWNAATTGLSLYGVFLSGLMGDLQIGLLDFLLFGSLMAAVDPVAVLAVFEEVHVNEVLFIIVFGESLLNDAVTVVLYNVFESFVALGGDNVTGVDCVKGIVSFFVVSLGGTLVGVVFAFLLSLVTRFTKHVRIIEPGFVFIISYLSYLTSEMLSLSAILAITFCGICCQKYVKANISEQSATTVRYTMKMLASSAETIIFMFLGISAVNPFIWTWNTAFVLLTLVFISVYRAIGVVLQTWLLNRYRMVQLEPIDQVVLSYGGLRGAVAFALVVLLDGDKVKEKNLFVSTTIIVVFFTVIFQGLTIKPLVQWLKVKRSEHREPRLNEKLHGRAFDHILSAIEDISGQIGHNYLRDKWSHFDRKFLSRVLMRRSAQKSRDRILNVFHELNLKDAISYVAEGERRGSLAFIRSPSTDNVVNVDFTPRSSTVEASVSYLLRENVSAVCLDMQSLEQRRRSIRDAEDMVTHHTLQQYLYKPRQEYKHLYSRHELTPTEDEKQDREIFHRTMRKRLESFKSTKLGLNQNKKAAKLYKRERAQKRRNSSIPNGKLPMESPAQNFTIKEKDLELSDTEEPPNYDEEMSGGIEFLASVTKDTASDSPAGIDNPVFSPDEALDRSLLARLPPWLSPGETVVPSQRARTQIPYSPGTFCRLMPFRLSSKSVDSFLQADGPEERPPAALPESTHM
Assay: Recovery of intracellular pH (pHi) after acidification in LAP1 cells stably expressing NHE3 (BCECF fluorescence, FLIPR)
Type: cell-based
Conditions: LAP1 cells stably expressing NHE3; pH recovery after acidification; range 1 is % inhibition at 10 μM; read-out: Activity range (inhibitory effect on NHE3)

Row | SMILES | inhibition at 10 µM [%] | IC50 [nM]
1 | CS(=O)(=O)c1ccc(O[C@@H]2c3ccccc3C[C@@H]2NC2CCC2)cc1 (racemic) [Example 706, Cyclobutyl-[rac-cis-(1,2)-1-(4-methanesulfonyl-phenoxy)-indan-2-yl]-amine] | 20 to 50 | 
2 | CS(=O)(=O)c1ccc(O[C@@H]2c3ccccc3C[C@H]2NC2CCC2)cc1 (racemic) [Example 708, Cyclobutyl-[rac-trans-(1,2)-1-(4-methanesulfonyl-phenoxy)-indan-2-yl]-amine] |  | 1000 to 10000
3 | CC(=O)Nc1cccc(O[C@H]2c3ccccc3C[C@@H]2N2CC[C@@H](CO)C2)c1 (racemic) [Example 680, N-{3-[rac-trans-(1,2)-2-((R)-3-hydroxymethylpyrrolidin-1-yl)indan-1-yloxy]phenyl}acetamide] |  | 1000 to 10000
4 | COc1cc(Cl)cc(O[C@H]2c3ccccc3CC[C@@H]2N2CCC[C@@H](N)C2)c1 (racemic) [Example 54, (R)-1-[rac-trans-(1,2)-1-(3-chloro-5-methoxyphenoxy)-1,2,3,4-tetrahydronaphthalen-2-yl]piperidin-3-ylamine] | 20 to 50 | 
5 | Cc1cc(O[C@H]2c3cc(F)cc(Cl)c3C[C@@H]2N2CCC[C@@H](N)C2)ccc1S(=O)(=O)C(F)(F)F (racemic) [Example 90, (R)-1-[rac-trans-(1,2)-4-chloro-6-fluoro-1-(3-methyl-4-trifluoromethanesulfonylphenoxy)indan-2-yl]piperidin-3-ylamine] |  | 1000 to 10000
6 | CS(=O)(=O)c1ccc(O[C@H]2c3cc(Cl)c(Cl)cc3C[C@@H]2N2CCCNCC2)cc1 (racemic) [Example 286, 1-[rac-trans-(1,2)-5,6-dichloro-1-(4-methanesulfonylphenoxy)indan-2-yl]-[1,4]diazepane] |  | 1000 to 10000
7 | CS(=O)(=O)c1ccc(O[C@H]2c3ccccc3C[C@@H]2N2CCCC2)cc1Cl (racemic) [Example 268, 1-[rac-trans-(1,2)-1-(3-chloro-4-methanesulfonylphenoxy)indan-2-yl]pyrrolidine] | 20 to 50 | 
8 | NC(=O)Nc1cccc(O[C@@H]2c3ccccc3C[C@H]2N2CCC[C@H](N)C2)c1 (racemic) [Example 232, {3-[rac-trans-(1,2)-2-((S)-3-aminopiperidin-1-yl)indan-1-yloxy]phenyl}urea] |  | 1000 to 10000
9 | N[C@H]1CCCN([C@H]2CCc3ccccc3[C@@H]2Oc2ccc(F)cc2-c2ccno2)C1 (racemic) [Example 178, (S)-1-[rac-trans-(1,2)-1-(4-fluoro-2-isoxazol-5-ylphenoxy)-1,2,3,4-tetrahydronaphthalen-2-yl]piperidin-3-ylamine] | 20 to 50 | 
10 | FC(F)(F)CCN[C@@H]1CCCN([C@H]2Cc3c(Cl)cc(Cl)cc3[C@@H]2Oc2ccc(-n3cncn3)cc2)C1 [Example 221, {(R)-1-[trans-(1S,2S)-4,6-dichloro-1-(4-[1,2,4]triazol-1-ylphenoxy)indan-2-yl]piperidin-3-yl}-(3,3,3-trifluoropropyl)amine] |  | < 1000
11 | CS(=O)(=O)c1ccc(O[C@H]2c3ccccc3C[C@@H]2CN2CCOCC2)cc1 (racemic) [Example 487, 4-[1-(4-methanesulfonylphenoxy)indan-2-ylmethyl]morpholine] | 20 to 50 | 
12 | Cc1nnc(C)n1-c1ccc(O[C@H]2c3cc(Cl)cc(Cl)c3C[C@@H]2N2CCC[C@@H](O)C2)cc1 [Example 132, (R)-1-{trans-(1S,2S)-4,6-dichloro-1-[4-(3,5-dimethyl-[1,2,4]triazol-4-yl)phenoxy]indan-2-yl}piperidin-3-ol] |  | < 1000
13 | CS(=O)(=O)c1ccc(O[C@H]2c3cc(Cl)ccc3C[C@@H]2N2CCNCC2)cc1 (racemic) [Example 289, 1-[rac-trans-(1,2)-6-chloro-1-(4-methanesulfonylphenoxy)indan-2-yl]piperazine] |  | < 1000
14 | N[C@@H]1CCCN([C@@H]2Cc3ccccc3[C@H]2Oc2ccc3c(c2)OCO3)C1 (racemic) [Example 83, (R)-1-[rac-trans-(1,2)-1-(benzo[1,3]dioxol-5-yloxy)indan-2-yl]piperidin-3-ylamine] |  | 1000 to 10000
15 | N#Cc1ccc(O[C@H]2c3cc(Cl)cc(Cl)c3C[C@@H]2N2CC[C@H](O)C2)c(F)c1 [Example 555, 4-[trans-(1S,2S)-4,6-dichloro-2-((S)-3-hydroxypyrrolidin-1-yl)indan-1-yloxy]-3-fluorobenzonitrile] |  | 1000 to 10000
16 | Clc1cc(Cl)c2c(c1)[C@H](Oc1ccc(-n3cncn3)cc1)[C@@H](N1CC3CNCC3C1)C2 (mixture of isomers) [Example 377, 2-[rac-trans-(1,2)-4,6-dichloro-1-(4-[1,2,4]triazol-1-ylphenoxy)indan-2-yl]octahydropyrrolo[3,4-c]pyrrole] |  | < 1000
17 | CS(=O)(=O)c1ccc(O[C@H]2c3cc(Cl)cc(Cl)c3C[C@@H]2N2CCC[C@H]2CN2CCCC2)cc1 [Example 195, (S)-1-[trans-(1S,2S)-4,6-dichloro-1-(4-methanesulfonylphenoxy)indan-2-yl]-2-pyrrolidin-1-ylmethylpyrrolidine] |  | < 1000
18 | N[C@@H]1CCCN([C@H]2CCc3ccccc3[C@@H]2Oc2ccc(NC(=O)OCc3ccccc3)cc2)C1 (racemic) [Example 237, {4-[rac-trans-(1,2)-2-((R)-3-aminopiperidin-1-yl)-1,2,3,4-tetrahydronaphthalen-1-yloxy]phenyl}carbamic acid benzyl ester] | 20 to 50 | 
19 | Cc1nnc(C)n1-c1ccc(O[C@H]2c3cc(Cl)cc(Cl)c3C[C@@H]2N2CC[C@@](C)(O)C2)cc1 (racemic) [Example 111, (R)-1-{(1S,2S)-4,6-dichloro-1-[4-(3,5-dimethyl-[1,2,4]triazol-4-yl)phenoxy]indan-2-yl}-3-methylpyrrolidin-3-ol] |  | < 1000
20 | N[C@@H]1CCCN([C@@H]2Cc3ccccc3[C@H]2Oc2ccc(Br)cc2-c2cc[nH]n2)C1 (racemic) [Example 118, (R)-1-{rac-trans-(1,2)-1-[4-bromo-2-(1H-pyrazol-3-yl)phenoxy]indan-2-yl}piperidin-3-ylamine] |  | 1000 to 10000
21 | COc1cc(Cl)ccc1O[C@H]1c2ccccc2CC[C@@H]1N1CCC[C@H](N)C1 (racemic) [Example 174, (S)-1-[rac-trans-(1,2)-1-(4-chloro-2-methoxyphenoxy)-1,2,3,4-tetrahydronaphthalen-2-yl]piperidin-3-ylamine] | 20 to 50 | 
22 | CCc1nc(C)cn1-c1ccc(O[C@H]2c3cc(Cl)cc(F)c3C[C@@H]2N2CC[C@@H](O)C2)cc1 [Example 719, (R)-1-{trans-(1S,2S)-6-Chloro-1-[4-(2-ethyl-4-methyl-imidazol-1-yl)-phenoxy]-4-fluoro-indan-2-yl}-pyrrolidin-3-ol] |  | 1000 to 10000
23 | CC(=O)Nc1cccc(O[C@H]2c3ccccc3C[C@@H]2N2CCCCC2)c1 [Example 663, N-[3-(trans-(1S,2S)-2-piperidin-1-ylindan-1-yloxy)phenyl]acetamide] |  | < 1000
24 | N[C@H]1CCCN([C@@H]2Cc3ccccc3[C@H]2Oc2cccc(CN3CCCCC3)c2)C1 (racemic) [Example 170, (S)-1-[rac-trans-(1,2)-1-(3-piperidin-1-ylmethylphenoxy)indan-2-yl]piperidin-3-ylamine] |  | 1000 to 10000
25 | CCCC1(N)CCCN([C@H]2Cc3c(Cl)cc(Cl)cc3[C@@H]2Oc2cccc(NC(C)=O)c2)C1 (mixture of isomers) [Example 693, N-{3-[trans-(1S,2S)-2-(3-amino-3-propylpiperidin-1-yl)-4,6-dichloroindan-1-yloxy]phenyl}acetamide] |  | < 1000
